Reference: patent US10174067B2, “Type of cytidine derivative and application thereof” (priority 2014, dated 2019)
Marks after values point to notes of the source that are not given here.

How the values were obtained:
ICR mice = test: in vivo; conditions: female ICR mice; single-dose ip
Protocol: This experiment was to investigate the toxic effects of single-dose intraperitoneal administration on ICR mice and determine the maximum tolerated dose (MTD) of each subject. Maximum tolerated dose (MTD) refers to the dose that may not cause an animal to die, may not cause the animal to suffer weight loss exceeding 10% (compared with Day 0), or may not produce significant side effects.
The corresponding amount of test substance was taken in a 5 mL glass tube and dissolved in ethanol with a 5 mm magnetic stirrer for stirring. After dissolving completely, Cremophor EL was added with continuous stirring. The marked amount of saline was added and mixed evenly before use. The volume ratio of ethanol, Cremophor EL, and physiological saline was 5:5:90.
Varieties and lines: ICR mice; level: SPF; sex: female.
Method of administration: ip. The dose was reduced in case of animal death, till an animal survived; the dose was increased in case of no animal death; the test was ended when the animals survived normally at the given high dose. Finally, the MTD of the mice on the test substances was determined according to the test results. The animals were observed continuously for 7 days after acute administration.
During the experiment, all animals were under detailed and continuous clinical observation for […], twice a day (10:00 am, 16:00 pm) after administration. The observation included but not limited to: skin, hair, ear, nose, mouth, chest, abdomen, external genitalia, limbs and feet, respiratory and circulatory system, autonomic effects (such as salivation), nervous system (such as tremor, convulsions, stress response and abnormal behavior).
The body of animals was weighed before administration, and then weighed and recorded at the same time each day.
The observation results, animal body weight, and animal survival after one week of administration were recorded in detail every day.

[1] = tested on: HCT-116 colon cancer xenografts; test: Tumor growth inhibition of HCT-116 colon cancer xenografts in tumor-bearing nude mice (tumor volume, TGI %, RTV, T/C %); assay type: in vivo, Balb/c Nude mice; conditions: for Day 0 (RTV) / Tumor volume, Day 0 / Day 4 (RTV) / Tumor volume, Day 4 / Day 6 (RTV) / Tumor volume, Day 6 / Day 8 (RTV) / Tumor volume, Day 8 / Day 11 (RTV) / Tumor volume, Day 11 / Day 13 (RTV) / Tumor volume, Day 13 / Day 15 (RTV) / Tumor volume, Day 15 / Day 18 (RTV) / Tumor volume, Day 18 / Day 20 (RTV) / Tumor volume, Day 20 / Day 22 (RTV) / Tumor volume, Day 22: Mean±SEM; for T/C % (relative tumor proliferation rate): single-dose intraperitoneal, dosage mg/kg: G3, G4, G8 350, G5, G9 325, G6 300, G7 250;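 for T/C % (relative tumor proliferation rate): control C is the vehicle-treated model control group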
In short: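 Tumors in HCT-116-inoculated nude mice were sized three times weekly by diameter, with volume V=3/4π(D/2)^3. Significance set at P<0.05.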

[2] = for Weight change rate, Day 0 / Weight of mice, Day 0 / Weight change rate, Day 4 / Weight of mice, Day 4 / Weight change rate, Day 6 / Weight of mice, Day 6 / Weight change rate, Day 8 / Weight of mice, Day 8 / Weight change rate, Day 11 / Weight of mice, Day 11 / Weight change rate, Day 13 / Weight of mice, Day 13 / Weight change rate, Day 15 / Weight of mice, Day 15 / Weight change rate, Day 18 / Weight of mice, Day 18 / Weight change rate, Day 20 / Weight of mice, Day 20 / Weight change rate, Day 22 / Weight of mice, Day 22: G3-G9 groups, single IP dose, Mean±SEM; for Day 22 Mortality: single IP dose (mg/kg)
In short: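 Test compounds formulated in ethanol:Cremophor EL:saline (5:5:90), vehicle alone as control, in HCT-116 subcutaneous xenografts in female Balb/c nudes (6/group, start 60–150 mm^3). Weight measured three times weekly, tumour weight at end; unpaired t-test on Mean±SEM data.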

[3] = Day 0, G3-G9 groups, single IP dose
[4] = Day 4, G3-G9 groups, single IP dose
[5] = Day 6, G3-G9 groups, single IP dose
[6] = Day 8, G3-G9 groups, single IP dose
[7] = Day 11, G3-G9 groups, single IP dose
[8] = Day 13, G3-G9 groups, single IP dose
[9] = Day 15, G3-G9 groups, single IP dose
[10] = Day 18, G3-G9 groups, single IP dose
[11] = Day 20, G3-G9 groups, single IP dose
[12] = Day 22, G3-G9 groups, single IP dose

## CC(C)(C)OC(=O)Nc1ccn([C@@H]2O[C@H](CO)[C@@H](O)C2(F)F)c(=O)n1 [Compound G3, 4N-(t-butyloxycarbonyl)-2′deoxy-2′,2′-difluorocytidine]
ICR mice
  dose that could be tolerated (maximum tolerated dose, MTD): 350 mg/kg
[1]; [3]
  Day 0 (RTV): 1.00 ± 0.00
  Tumor volume, Day 0: 52.61 ± 13.58** mm^3
[1]; Day 0
  T/C % (relative tumor proliferation rate): 0.00%
[1]; [4]
  Day 4 (TGI %): 57.58%
  Day 4 (RTV): 1.72 ± 0.37
  Tumor volume, Day 4: 113.01 ± 44.54 mm^3
[1]; Day 4
  T/C % (relative tumor proliferation rate): 91.44%
[1]; [5]
  Day 6 (TGI %): 57.20%
  Day 6 (RTV): 3.21 ± 0.87
  Tumor volume, Day 6: 180.94 ± 66.04* mm^3
[1]; Day 6
  T/C % (relative tumor proliferation rate): 106.22%
[1]; [6]
  Day 8 (TGI %): 58.10%
  Day 8 (RTV): 3.91 ± 1.20
  Tumor volume, Day 8: 220.12 ± 86.80* mm^3
[1]; Day 8
  T/C % (relative tumor proliferation rate): 104.00%
[1]; [7]
  Day 11 (TGI %): 48.19%
  Day 11 (RTV): 7.44 ± 23.2
  Tumor volume, Day 11: 416.66 ± 160.05 mm^3
[1]; Day 11
  T/C % (relative tumor proliferation rate): 125.12%
[1]; [8]
  Day 13 (TGI %): 54.18%
  Day 13 (RTV): 8.92 ± 2.48
  Tumor volume, Day 13: 531.90 ± 203.98* mm^3
[1]; Day 13
  T/C % (relative tumor proliferation rate): 103.73%
[1]; [9]
  Day 15 (TGI %): 46.45%
  Day 15 (RTV): 13.32 ± 4.00
  Tumor volume, Day 15: 756.53 ± 280.79 mm^3
[1]; Day 15
  T/C % (relative tumor proliferation rate): 127.18%
[1]; [10]
  Day 18 (TGI %): 45.71%
  Day 18 (RTV): 17.04 ± 5.01
  Tumor volume, Day 18: 1004.83 ± 385.58 mm^3
[1]; Day 18
  T/C % (relative tumor proliferation rate): 123.71%
[1]; [11]
  Day 20 (TGI %): 41.37%
  Day 20 (RTV): 21.58 ± 6.58
  Tumor volume, Day 20: 1242.64 ± 464.52 mm^3
[1]; Day 20
  T/C % (relative tumor proliferation rate): 136.12%
[1]; [12]
  Day 22 (RTV): 24.39 ± 7.52
  Tumor volume, Day 22: 1390.74 ± 510.70 mm^3
[1]; Day 22
  T/C % (relative tumor proliferation rate): 125.42%
[1]; day of maximum: G3 Day 8, G4 Day 11, G5 Day 11, G9 Day 4, G7 Day 8, single IP
  maximum value of TGI %: 58.10%
[2]
  Weight change rate, Day 0: 0.00 ± 0.00%
  Weight of mice, Day 0: 20.47 ± 0.42 g
  Weight change rate, Day 6: 4.36 ± 0.88%
  Weight of mice, Day 6: 21.35 ± 0.39 g
  Weight change rate, Day 8: 2.86 ± 2.28%
  Weight of mice, Day 8: 21.03 ± 0.52 g
  Weight change rate, Day 11: 4.67 ± 0.64%
  Weight of mice, Day 11: 21.43 ± 0.56 g
  Weight change rate, Day 13: 6.20 ± 0.88 %
  Weight of mice, Day 13: 21.75 ± 0.60 g
  Weight change rate, Day 15: 3.40 ± 1.34%
  Weight of mice, Day 15: 21.18 ± 0.66 g
  Weight change rate, Day 18: 2.66 ± 1.40%
  Weight of mice, Day 18: 21.03 ± 0.68 g
  Weight change rate, Day 20: 2.40 ± 1.27%
  Weight of mice, Day 20: 20.98 ± 0.68 g
  Weight change rate, Day 22: 3.33 ± 2.34%
  Weight of mice, Day 22: 21.17 ± 0.77 g
  Day 22 Mortality: 0%
[2]; Day 4
  Weight change rate, Day 4: 3.13 ± 1.03 %
  Weight of mice, Day 4: 21.10 ± 0.41 g
[2]; after single IP dose, compared with model control group
  clinical symptoms: no significant differences in clinical symptoms

## CCCCOC(=O)Nc1nc(=O)n([C@@H]2O[C@H](CO)[C@@H](O)C2(F)F)cc1Br [Compound G6, 5-Br-4-N-(n-butoxycarbonyl)-2′-deoxy-2′,2′-difluorocytidine]
ICR mice
  dose that could be tolerated (maximum tolerated dose, MTD): 200 mg/kg
[1]; [3]
  Day 0 (RTV): 1.00 ± 0.00
  Tumor volume, Day 0: 80.31 ± 24.42* mm^3
[1]; Day 0
  T/C % (relative tumor proliferation rate): 0.09%
[1]; [4]
  Day 4 (TGI %): 82.09%
  Day 4 (RTV): 1.42 ± 0.00
  Tumor volume, Day 4: 47.71 ± 0.00 mm^3
[1]; Day 4
  T/C % (relative tumor proliferation rate): 75.54%
[1]; [5]
  Day 6 (TGI %): 84.52%
  Day 6 (RTV): 1.95 ± 0.00
  Tumor volume, Day 6: 65.45 ± 0.00 mm^3
[1]; Day 6
  T/C % (relative tumor proliferation rate): 64.68%
[1]; [6]
  Day 8 (TGI %): 78.47%
  Day 8 (RTV): 3.38 ± 0.00
  Tumor volume, Day 8: 113.10 ± 0.00 mm^3
[1]; Day 8
  T/C % (relative tumor proliferation rate): 89.68%
[1]; [7]
  Day 11 (TGI %): 72.53%
  Day 11 (RTV): 6.59 ± 0.00
  Tumor volume, Day 11: 220.89 ± 0.00 mm^3
[1]; Day 11
  T/C % (relative tumor proliferation rate): 110.90%
[1]; [8]
  Day 13 (TGI %): 67.12%
  Day 13 (RTV): 11.39 ± 0.00
  Tumor volume, Day 13: 381.70 ± 0.00 mm^3
[1]; Day 13
  T/C % (relative tumor proliferation rate): 132.45%
[1]; [9]
  Day 15 (TGI %): 50.67%
  Day 15 (RTV): 20.80 ± 0.00
  Tumor volume, Day 15: 696.91 ± 0.00 mm^3
[1]; Day 15
  T/C % (relative tumor proliferation rate): 198.59%
[1]; [10]
  Day 18 (TGI %): 22.38%
  Day 18 (RTV): 42.88 ± 0.00
  Tumor volume, Day 18: 1436.76 ± 0.00 mm^3
[1]; Day 18
  T/C % (relative tumor proliferation rate): 311.29%
[1]; [11]
  Day 20 (TGI %): 16.62%
  Day 20 (RTV): 52.73 ± 0.00
  Tumor volume, Day 20: 1767.15 ± 0.00 mm^3
[1]; Day 20
  T/C % (relative tumor proliferation rate): 332.56%
[1]; [12]
  Day 22 (TGI %): 18.00%
  Day 22 (RTV): 64.00 ± 0.00
  Tumor volume, Day 22: 2144.66 ± 0.00 mm^3
[1]; Day 22
  T/C % (relative tumor proliferation rate): 329.10%
[2]
  Weight change rate, Day 0: 0.00 ± 0.00%
  Weight of mice, Day 0: 21.47 ± 0.65 g
  Weight change rate, Day 6: 0.52 ± 0.00%
  Weight of mice, Day 6: 19.40 ± 0.00 g
  Weight change rate, Day 8: 1.55 ± 0.00%
  Weight of mice, Day 8: 19.60 ± 0.00 g
  Weight change rate, Day 11: 6.22 ± 0.00%
  Weight of mice, Day 11: 20.50 ± 0.00 g
  Weight change rate, Day 13: 7.77 ± 0.00%
  Weight of mice, Day 13: 20.80 ± 0.00 g
  Weight change rate, Day 15: 8.29 ± 0.00%
  Weight of mice, Day 15: 20.90 ± 0.00 g
  Weight change rate, Day 18: 5.18 ± 0.00%
  Weight of mice, Day 18: 20.30 ± 0.00 g
  Weight change rate, Day 20: 4.66 ± 0.00%
  Weight of mice, Day 20: 20.20 ± 0.00 g
  Weight change rate, Day 22: 6.22 ± 0.00%
  Weight of mice, Day 22: 20.50 ± 0.00 g
  Day 22 Mortality: 83%
[2]; Day 4
  Weight change rate, Day 4: 0.00 ± 0.00%
  Weight of mice, Day 4: 19.30 ± 0.00 g
[2]; Day 4, G4 350 mg/kg, G8 350 mg/kg, G6 300 mg/kg, single IP, 6 mice a group
  animals died on Day 4 after administration: Five
